Measurements published in patent US20100130581A1, “COMPOUNDS AND METHODS FOR THE TREATMENT OF PAIN” (THE UNIVERSITY OF QUEENSLAND, priority 2006, published 2010).
Entries after “also recorded” stand apart in the source; their conditions may differ. Where a SMILES comes first, the peptide text is derived from it. [ ]: non-standard residue; d: D form. ξ: configuration not given here. Dmt = Cc1cc(O)cc(C)c1C[C@H](N)C(=O)O; ξGly(octyl) = CCCCCCCCC(N)C(=O)O; ξAoc(2) = CCCCCCC(N)C(=O)O

What was measured:
CCI-rats = assay: Pain relief in CCI-rat model of neuropathic pain (von Frey paw withdrawal thresholds); format: in vivo
Plasma stability assay = format: in vitro ADME; details: male, human, plasma at 37° C.
Procedure: To measure the enzymatic stability of endomorphin-1 analogs in plasma, blood was taken from a healthy volunteer and the blood was centrifuged at 1700 rpm for 30 minutes to remove blood cells. The plasma was placed into a water bath heated at 37° C. and Endomorphin-1 and analog was added to give final concentrations of 0.7 mg/mL. Samples were incubated for varying time periods between 0 and 180 minutes. 50 μL of sample was taken at each time-point and 75 μL of acetonitrile was added to quench any enzyme activity. The samples were then placed on ice and upon completion of the assay, all samples were centrifuged at 9000 rpm for 3 minutes to remove all precipitated plasma proteins. The amount of intact peptide remaining in the supernatent of each sample was determined using RP HPLC by measuring the area under the curve of the peak at the appropriate retention time compared to a standard curve of concentration for each peptide (see FIG. 8).

[1] = tested on: gastrointestinal motility; assay: Gut motility study (charcoal meal); format: in vivo, rat; details: rats
Procedure: Each dose of Compound 8, morphine and vehicle was administered to naïve rats as a 100 μL i.v. bolus injection via an indwelling cannula surgically implanted into the jugular vein at least 12 h prior to dose administration. Rats were anaesthetised with 3% isoflurane: 97% oxygen inhalational anaesthetic. A 1 cm incision was made on the right ventral side of the trachea. Using blunt dissection, the jugular vein was exposed and a small incision made to allow cannula insertion. The cannula was inserted into the vein, its integrity assessed, and tied into place using sterile sutures. The wound was sutured, the cannula was exteriorised at the back of the neck and secured using a metal spring. The rats were kept warm during surgical recovery. Animals were housed singly for the remainder of the experimentation period. Rats were inspected regularly from the time of surgery with respect to exploring behaviour, body weight and water intake. No adverse signs from the surgery were observed.
Charcoal meal was prepared by mixing 10% charcoal and 5% arabic gum in distilled, deionised water. Each rat received a single oral gavage of charcoal meal. Thirty minutes later the animal was euthanised using CO2 asphyxiation and the intestine was removed and measured. The distance from the pyloric sphincter to the caudal end of the charcoal and the total distance of the small intestine to the distal part of the ileum were measured in cm. Gastrointestinal motility was determined as the distance traveled by the charcoal relative to the total length of the small intestine, expressed as a percentage.
Each rat received a single bolus i.v. dose of Compound 8, morphine or vehicle. Animals received either vehicle (n=5), morphine at 1 mg/kg (n=3), 2 mg/kg (n=5), 10 mg/kg (n=5) and 30 mg/kg (n=2) or Compound 8 at 0.3 mg/kg (n=3), 1 mg/kg (n=5), 3 mg/kg (n=4), and 10 mg/kg (n=3). Thirty minutes after i.v. dosing an oral gavage of charcoal meal was administered under light (50%:50% CO2:O2) anaesthesia. Thirty minutes later the animal was euthanised via CO2 asphyxiation and the intestine was removed and the distance moved by the charcoal meal was measured.
The intestine was measured for distance of charcoal meal traveled in the small intestine and total length of small intestine. The % distance of charcoal transit was assessed relative to the total length of the small intestine. % inhibition of gastrointestinal motility by morphine or Compound 8 was calculated by the following equation: [(average % charcoal transit in vehicle rats)−(% distance charcoal transit)×100]/(average % charcoal transit in vehicle rats).

[2] = tested on: μ- and δ-opioid receptors; assay: Cell based assay of cAMP inhibition in forskolin treated SH-SY5Y cells; details: Efficacy SH-SY5Y cell line
Procedure: SH-SY5Y cells endogenously expressing μ- and δ-opioid receptors were cultured (100 μl) in a 96 well-plate and incubated (usually overnight) until 80% confluent. Once cells were ready for assay, Endo-1, Endo-2 and derivatives/analogs were diluted in DMEM culture medium containing 30 μM forskolin. The diluted derivatised endomorphins or derivatised endomorphin analogs were then applied to separate wells for agonist studies and co-incubated for antagonist studies. Cells were incubated with derivatised endomorphins or derivatised endomorphin analogs at 37° C. for 30 minutes, medium was aspirated and cells were lysed using lysis buffer from a cAMP Biotrak EIA kit (Amersham, Buckinghamshire, UK). An anti-cAMP antibody was added to the lysate, and the mixture incubated at 4° C. for 2 hours followed by the addition of a cAMP peroxidase conjugate, and incubated at 4° C. for a further hour. A 3,3′5,5′-tetramethylbenzidine (TMB) substrate provided by the Biotrak EIA kit was then incubated with cell lysate for 1 hour and finally 1 […] was added to facilitate a colour change, which is proportional to the amount of cAMP captured. A cAMP standard curve from 0 to 3200 fmol was also generated concurrently. Plates were then read by a plate reader at 450 nm and compared back to the cAMP standard curve. All data are compared to the maximum cAMP response to forskolin and are represented as the mean+/−standard error of three experiments performed in triplicate. All data are plotted using PRISM program (GraphPad, San Diego, Calif.) (see FIGS. 2a and 2b).

μ-opioid receptor = molecular target: T1, μ-opioid receptor (Homo sapiens, UniProt P35372); assay: Whole cell-based binding assay, displacement of 3H-DAMGO
T1 construct: SH-SY5Y cells endogenously expressing μ- and δ-opioid receptors; endogenous in cells; host or cells: SH-SY5Y cells
T1 sequence (P35372 whole entry): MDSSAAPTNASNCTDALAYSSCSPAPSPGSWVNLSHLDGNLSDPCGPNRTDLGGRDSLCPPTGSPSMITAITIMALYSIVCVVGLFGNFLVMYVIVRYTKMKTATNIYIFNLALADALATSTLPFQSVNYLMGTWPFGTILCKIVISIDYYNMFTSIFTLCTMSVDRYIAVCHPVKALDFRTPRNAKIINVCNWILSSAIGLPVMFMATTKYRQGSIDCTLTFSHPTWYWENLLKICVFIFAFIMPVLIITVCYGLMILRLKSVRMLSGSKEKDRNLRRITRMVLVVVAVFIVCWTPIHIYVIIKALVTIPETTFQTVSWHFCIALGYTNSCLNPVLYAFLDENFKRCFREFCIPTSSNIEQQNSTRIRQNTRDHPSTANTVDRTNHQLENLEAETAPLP
Procedure: Media was removed and cells were washed with PBS before pre-incubation in 300 μL of binding buffer. Binding studies were performed with 100 μL of appropriate concentrations of ^3H-labeled DAMGO (a selective μ-opioid receptor agonist) and 100 μL of competitor or blank in binding buffer at 37° C. for 60 min. Competition binding experiments were performed using […] of ^3H-labelled DAMGO in the absence or presence of increasing concentrations of unlabeled derivatised endomorphins or derivatised endomorphin analogs. A 1 μM excess of unlabelled DAMGO was used to determine non-specific binding. Following incubation, the cells were washed with PBS and recovered from culture plates using 500 μL of […] before transfer to scintillation vials. Liquid scintillation cocktail (Ultima Gold, Packard, Meriden, USA) was added to these vials for counting in a liquid scintillation analyser. Data are expressed as the mean±SEM of % specific binding of triplicate determinations performed on at least three independent plates of cells. Data were plotted using the one-site competition functions of the PRISM program (Graphpad Inc., San Diego, USA) (see FIGS. 1a, 1b and 7).

Caco-2 cells = assay: Caco-2 permeability study; details: Caco-2 cell line; graded by number of ♦ (up to 5), key not given
Procedure: Approximately 1×10^6 cells/mL concentration of cells were seeded onto polycarbonate cell culture inserts (Transwell®; 0.45 μm×6.5 mm diameter). DMEM cell culture media was supplemented with 10% FBS, 1% L-glutamine, 1% nonessential amino acids and 1% 100 U/mL penicillin/streptomycin. The media was changed every other day (0.6 mL in the basolateral chamber and 0.1 mL to the apical chamber) and the monolayers were used between days 21-28. Transepithelial electrical resistance (TEER) of the monolayer was measured using the Millicell-ERS system (Millipore Corporation, Bedford, Mass.). C^14-mannitol permeability was used to monitor the integrity of the Caco-2 monolayers.
Prior to beginning the experiments, the monolayers were washed with pre-warmed HBSS-Hepes buffer, incubated for 30 min. At the start of the experiment the apical chamber was emptied and 100 μL of either the derivatised endomorphin or derivatised endomorphin analog solution was added. The permeability study was performed in triplicate at 37° C. shaking in a Heridolf Titramax shaking at 400 rpm. […] Permeability coefficients (Papp) were calculated from data generated by LC/MS quantitative analysis of all samples using a gradient HPLC system (Shimadzu LC-10AT system) coupled to a triple quadrupole mass spectrometer (PE Sciex API 3000) operating in SIM mode with positive ion electrospray. The mobile phase was a mixture of solvent A (0.1% formic acid in water) and solvent B (0.1% formic acid in 90% acetonitrile/water). A C18 column, 5 μM, 50×2.0 mm (Phenomex®) was used at a flow rate 0.3 mL/min with a gradient from 100% A to 90% B in 7 minutes, incorporating a splitter (1:10).
The permeability of the sugars themselves was also examined.

[3] = tested on: homogenate of Caco-2 cells; assay: Enzymatic stability study in homogenized Caco-2 cells; format: in vitro ADME; details: Caco-2 cell line; graded by number of ♦ (up to 5), key not given
Procedure: Approximately 1×10^5 cells/mL concentration of cells were seeded onto the 96 well plate. […] The media was changed every other day. 21-28 days old cells were used for the experiments. the media was removed from the wells and each well washed with 100 μL 0.2% EDTA solution followed by washing three times with Hanks' balanced salt solution (HBSS) containing 25 mM Hepes (pH 7.4). Finally, 100 μL of this buffer was placed in each well and the plate cooled in ice. The monolayer of cells in each well was then disrupted by 2×1 second pulses with a Sonics Vibracell ultrasonic processor set at an amplitude of 30. The cell debris was then removed by centrifugation of the plate at 2000 rpm for 5 min. 80 μL cell homogenate supernatant of each well was then transferred to a clean 96 well plate, and 20 μL of HBSS-Hepes was added. Three of the wells' contents were set aside and assayed for total protein content using the Lowry assay. The compounds to be tested were dissolved in HBSS-Hepes buffer to a concentration of 200 μM.
This assay was performed at 37° C. […] The stability assay on each compound was conducted in triplicate and the concentrations averaged for each time point.

In the case of `CCCCCCCCC(N)C(=O)N[C@@H](Cc1c(C)cc(O)cc1C)C(=O)N1CCC[C@H]1C(=O)N[C@@H](Cc1c[nH]c2ccccc12)C(=O)N[C@@H](Cc1ccccc1)C(N)=O` (stereo partly shown) [Compound 8] (H-[ξGly(octyl)][Dmt]PWF-NH2), the “antinociception / baseline PWT responses, in words” value (CCI-rats; contralateral hindpaw, CCI-rats, i.v., Endo1 1 mg/kg, Compound 8 0.3-3 mg/kg) is reported as “did not significantly alter baseline PWT responses; also recorded: no significant antinociception in the contralateral hindpaw”, the “baseline PWT responses, in words” value (CCI-rats; contralateral hindpaw, drug-naïve CCI-rats, i.v., Endo1 1.6 μmol/kg, Compound 8 1.2 μmol/kg) is reported as “did not significantly alter baseline PWT responses” and the “anti-nociceptive effect, in words” value (CCI-rats; contralateral hindpaw, s.c., 0.3-3 mg/kg, vs vehicle) is reported as “did not produce a significant, dose-dependent anti-nociceptive effect; also recorded: did not produce dose-dependent anti-nociceptive pain relief”. For the same compound, the “extent and duration of anti-allodynia compared with Endo1” value (CCI-rats; drug-naïve CCI-rats, ipsilateral hindpaw, i.v.) was “significantly (p<0.05) larger extent and duration of anti-allodynia”, the “anti-allodynic effect, in words” value (CCI-rats; ipsilateral hindpaw, CCI-rats, single bolus i.v. doses, vs vehicle) was “significant, dose-dependent anti-allodynic effect; also recorded: dose-dependent relief of tactile allodynia” and the “anti-allodynic effect, in words” value (CCI-rats; ipsilateral hindpaw, CCI-rats, single bolus s.c. doses 0.1-10 mg/kg, vs vehicle) was “significant, dose-dependent anti-allodynic effect; also recorded: dose-dependent relief of tactile allodynia”. For the same compound, the “dose-normalised area under the anti-allodynic response versus time curve (AUC), in words” value (CCI-rats; ipsilateral hindpaw, i.v., CCI-rats, over 3 h) was “significantly greater (p<0.05) than that of both Endo1 and vehicle”, the “time of mean peak anti-allodynic response” value (CCI-rats; ipsilateral hindpaw, i.v., highest dose tested) was about 0.5 h and the “mean duration of action” value (CCI-rats; ipsilateral hindpaw, i.v., highest dose tested (3 mg/kg)) was over 3 h. The “mean duration of action” value (CCI-rats; ipsilateral hindpaw, i.v., lower doses (0.1 and 0.3 mg/kg)) was 2 to 3 h, the “time of mean peak anti-allodynic response” value (CCI-rats; ipsilateral hindpaw, i.v., over doses tested) was 0.5 to 1 h and the “time of mean peak anti-allodynic response” value (CCI-rats; ipsilateral hindpaw, s.c., 0.1-10 mg/kg) was 0.5 to 1 h. The “time of mean peak anti-allodynic response” value (CCI-rats; ipsilateral hindpaw, s.c., highest dose tested) was about 0.5 h, the half-life at 0.7 mg/mL (Plasma stability assay) was 41.4 min and the “% inhibition of gastrointestinal transit, compared with i.v. morphine” value ([1]; i.v., 10 mg/kg) was “did not differ significantly (p>0.05)”. The “average gradient of log dose vs. % inhibition of gastrointestinal motility curve” value ([1]; single bolus i.v. doses, FIG. 15) was “lower than the average gradient for the curve corresponding to morphine”, the “inhibition of gastrointestinal motility, in words” value ([1]; single i.v. bolus, 0.3, 1, 3 and 10 mg/kg) was “inhibited gastrointestinal motility at all doses assessed” and the IC50 [2] was 0.0634 nM. It also gave a Ki (μ-opioid receptor) of 0.47 nM.
With `NC(=O)[C@H]1O[C@@H](NC(=O)[C@H](Cc2ccccc2)NC(=O)[C@H](Cc2c[nH]c3ccccc23)NC(=O)[C@@H]2CCCN2C(=O)[C@@H](N)Cc2ccc(O)cc2)[C@H](O)[C@@H](O)[C@@H]1O` [Compound 18] the Permeability (Caco-2 cells) was “♦” and the “Enzymatic stability 2 h” value [3] was “♦”.
For `CCCCCCC(NC(=O)[C@H](Cc1ccccc1)NC(=O)[C@H](Cc1c[nH]c2ccccc12)NC(=O)[C@@H]1CCCN1C(=O)[C@@H](N)Cc1ccc(O)cc1)C(N)=O` (stereo partly shown) [Compound 19] (H-YPWF[ξAoc(2)]-NH2), the “Enzymatic stability 2 h” value [3] was “♦”.
